Experimental data reported in patent US20080154102A1, “Intraoperative imaging methods” (priority 2006, published 2008).
“Also recorded” adds a separate entry of the source.

How the values were obtained:
[1] = cited from earlier work
ureters = test: Ureteral mapping in rats; assay type: in vivo
Method: In rats, ureters were visualized by intravenous injection of 50 μL of CW800 CA at 10, 20, 50 and 100 μM to quantify the best concentration for […]. Fluorescence intensities of ureters, kidney, and abdominal wall were measured at 3, 5, 10, 20, and 30 min following injection.

[2] = Fluorescence spectrometry and fluorescence quantum yield; assay type: physicochemical
[3] = Excretion to bile / clearance after injection; assay type: in vivo
thoracic duct = test: Thoracic duct visualization in the rat model; assay type: in vivo; details: 50 μL of 10 μM into mesenteric lymph node, 5 minutes
Method: Additional experiments on thoracic duct visualization in the rat model were also performed using other NIR fluorescent agents.

Absorbance spectrometry = assay type: physicochemical; details: for Peak Absorbance in PBS: Table 2
Method: (§1) Absorbance spectrometry was performed with a 1-cm path length quartz cuvette in a USB2000 fiber-optic spectrometer (Ocean Optics, Dunedin, Fla.). Fluorescence spectrometry was performed with a 1-cm path length, 1.5 mL disposable methacrylate cuvette (Fisher Scientific, Hampton, N.H.) in a HR2000 fiber-optic spectrometer, and CUV-ALL-UV four-way cuvette holder (Ocean Optics), using a 655 nm laser diode light source (OPCOM O.E. Inc., Xiamen, China) with maximum output less than 5 mW. Data acquisition was performed with a computer using an OOI-Base32 spectrometer operating software package (Ocean Optics). The spectral range of the USB2000-FL spectrometer was from 350 to 1000 nm with spectral resolution of 7.6 nm, and that of the HR2000 spectrometer was from 200 to 1100 nm with a spectral resolution of 6.7 nm.

[4] = Fluorescence spectrometry and fluorescence quantum yield; assay type: physicochemical; details: for Peak Fluorescence in PBS / Quantum Yield in PBS: Table 2
Method: as §1
Fluorescence intensity was measured in each solvent (PBS, FBS, and methanol) at each concentration of the dye to determine the effect of the methylene blue concentration and solvents on total fluorescence yield. Fluorescence quantum yields of methylene blue in PBS, FBS, and methanol were calculated using oxazine725 in ethylene glycol (quantum yield: 19%) as a calibration standard, under the conditions of matched absorbance of methylene blue in each solvent.

[5] = Metabolism of CW800-CA, HPLC/mass spectrometry of urine samples; assay type: in vivo, pigs
Excerpt: As described herein, ureter visualization can usually be obtained rapidly, even in a few minutes following injection. […] To clarify the point, an HPLC/mass spectrometry (using electrospray/time-of-flight (ES-TOF) method has been made.
Urine samples were collected from pigs (N=5), and analyzed. The dye usually can be pinpointed with a fluorescence detector equipped with ES-TOF mass spectrometry. Urine samples were first passed over a 6,000 Da cutoff gel-filtration column to remove contaminating proteins, and eluate less than 6,000 Da was analyzed on a C18 column. Buffer A was water, BioPlus (American Bioanalytical, Natick, Mass.) and Buffer B was acetonitrile. Using a gradient of 0 to 50% Buffer B over 30 min, urine samples were resolved on a 4.6×150 mm Symmetry C18 column (Waters) at a flow rate of 1 ml per minute with eluate fed into a Waters LCT ES-TOF mass spectrometer. Ion mode was set to electrospray negative (ES−), and cone and capillary voltages were set at 30 and 3000 (V), respectively. Desolvation and source temperature were set at 350, 140 (° C.), respectively. Data were analyzed with Masslynx (Waters) software.

common bile duct [6] = test: Cholangiographic imaging with ICG, IR-786 and CW800-CA in rats; assay type: in vivo
Method: 50 μL of 100 μM IR-786 or CW800-CA (15 μg/kg), or 1 mM ICG (150 μg/kg), was injected into portal vein in anesthetized rats. A simultaneous color video/NIR fluorescence intraoperative imaging system was employed for quantification of NIR fluorescence images. In another 32 rats, bile duct was visualized by intravenous (N=16) or portal vein injection (N=16) of 50 μL of CW800-CA at 10, 20, 50 and 100 μM to quantify the best concentration for bile duct imaging. Fluorescence intensities of bile duct, liver (right lobe), and pancreas were measured at 3, 5, 10, 20, and 30 min following injection.

common bile duct [7] = test: Cholangiographic imaging with CW800-CA in pigs; assay type: in vivo; details: for detection of beads inserted into CBD: 5 mL of 50 μM intravenously, beads 2.5 and 3.5 mm
Method: Based on the results obtained in rats, CW800-CA was chosen as the contrast agent for a large animal model approaching the size of human. In 7 anesthetized pigs, 5 mL of 100 μM CW800-CA (15 μg/kg total) was injected into portal vein (N=3), or 5 mL of 50 μM (N=2) or 100 μM (N=2) of CW800-CA (7.5, and 15 μg/kg total, respectively) were injected intravenously.
Beads of 2.5 or 3.5 mm in diameter were inserted into common bile duct via papilla vateri by duodenostomy (N=2) to simulate blockage of the CBD.

[8] = system: perforating arteries and veins; test: NIR imaging of skin perforating vessels for flap surgery; assay type: in vivo, Yorkshire pig; details: 35 kg pig, 0.5 mg (14 μg/kg) intravenously
Method: To evaluate the usefulness of NIR agents for such methods, 0.5 mg (14 μg/kg) indocyanine green (ICG) was injected intravenously into a 35 kg Yorkshire pig, and the skin was imaged as described herein.

[9] = system: common bile duct, vasculature, coronary artery, myocardium; test: Multi-wavelength fluorescence imaging with MB and ICG; assay type: in vivo, pigs; details: pig
Method: Therefore, MB was used to visualize CBD in an anesthetized pig, while ICG was used to visualize vasculature.
To evaluate the possibility of multi-wavelength fluorescent imaging, ICG and methylene blue were used.
1 mg/kg methylene blue IV injection was followed 30 min after by 0.03 mg/kg ICG IV injection. […] NIR camera exposure time was 100 msec.
Next, one of the diagonal branches of the coronary artery (D2) was clamped (white arrow), and then 1 mg/kg of methylene blue was injected intravenously; see the second row of images. Just after releasing the clamp, 0.03 mg/kg ICG was injected intravenously. […] The right-most image in the second row was created by merging the image of the coronary arteriography using methylene blue at clamping D2 and the image using ICG after declamping D2.

[10] = rats, portal vein injection, listed as CW800CA

CC1(C)C(/C=C/C2=C(Oc3ccc(S(=O)(=O)O)cc3)C(=C/C=C3/N(CCCCS(=O)(=O)O)c4ccc(S(=O)(=O)[O-])cc4C3(C)C)/CCC2)=[N+](CCCCCC(=O)O)c2ccc(S(=O)(=O)O)cc21 [CW800-CA]
concentration above which significant quenching of fluorescence occurs ([1]; Ohnishi et al.): above 10 μM
visualization of ureters, in words (ureters; rat): excellent visualization of ureters
injected concentration showing the best SBR (ureter) (ureters; rats, 50 μL (7.5 μg/kg)): 50 µM
time of peak performance for ureter visualization (ureters; rats, every concentration): approximately 10 minutes
time at which ureters could be identified (ureters; rats, intravenous injection): 3 min
emission of CW800-CA [2]: ≈ 800 nm
clearance after intravenous injection [3]: rapidly cleared by: 1) the liver and excreted into bile and 2) the kidneys and excreted into urine
thoracic duct in the fluorescence image (thoracic duct): clearly visualized in the fluorescence image
Peak Absorbance in PBS (Absorbance spectrometry; in PBS): 775 nm
Peak Fluorescence in PBS ([4]; in PBS): 796 nm
Quantum Yield in PBS ([4]; in PBS): 9%
form in which the dye is excreted ([5]; HPLC/ES-TOF mass spectrometry): excreted into the bile in a substantially unmetabolized form; also recorded: excreted into bile as an unmetabolized form
fluorescence chromatograph after excretion into urine ([5]; HPLC/mass spectrometry): essentially a single peak with the expected mass spectrum
selectivity among three contrast agents for bile duct imaging (common bile duct [6]; compared with ICG and IR-786): most selective
dose required for CBD detection, portal vein injection (common bile duct [6]; portal vein injection): 3 to 15 µg/kg
injected concentration showing the best SBR (CBD) (common bile duct [6]; rats, 50 μL (7.5 μg/kg)): 50 µM
time of peak performance for CBD visualization (common bile duct [6]; rats, every concentration): approximately 10 minutes
time at which CBD could be identified (common bile duct [6]; rats, intravenous or portal injection): 3 min
dye stacking to the liver (common bile duct [6]; rats, portal vein injection): no significant dye stacking to the liver
signal to background ratio (SBR) of CBD, in words (common bile duct [6]; rats, portal vein injection): excellent signal to background ratio
dye stacking to the liver (common bile duct [6]; [10]): no dye stacking in the liver
signal to background ratio (SBR) of CBD, in words (common bile duct [6]; [10]): higher SBR than the other two
dose required for CBD detection, systemic intravenous injection (common bile duct [6]; systemic intravenous injection): 7.5 to 15 µg/kg
detection of beads inserted into CBD (common bile duct [7]): detected completely in 2 of 2 pigs
detection of beads inserted into CBD (common bile duct [7]; listed as CW800CA): All beads could be detected perfectly in each trial
time until visualization of the CBD after dye injection (common bile duct [7]; portal vein or intravenous injection): 7 to 10 min

CC1(C)C(/C=C/C=C/C=C/C=C2\N(CCCCS(=O)(=O)O)c3ccc4ccccc4c3C2(C)C)=[N+](CCCCS(=O)(=O)[O-])c2ccc3ccccc3c21 [ICG, indocyanine green]
clearance after intravenous injection [3]: rapidly cleared from the blood by the liver, but is only inefficiently transported into bile
thoracic duct in the fluorescence image (thoracic duct): clearly visualized in the fluorescence image
Excitation Wavelength Maximum, (FBS) (Absorbance spectrometry; in FBS): 800 nm
Molar Extinction Coefficient, (FBS) (Absorbance spectrometry; in FBS): 168,000 M^−1cm^−1
molar extinction coefficient in FBS (Absorbance spectrometry; in FBS, in M-1cm-1 (unit assumed)): 168,000
Excitation Wavelength Maximum, PBS (Absorbance spectrometry; in PBS): 779 nm
Peak Absorbance in PBS (Absorbance spectrometry; in PBS): 779 nm
Emission Wavelength Maximum, (FBS) ([4]; in FBS): 811 nm
Fluorescence Quantum Yield, (FBS) ([4]; in FBS): 9%
ICG fluorescence relative to methylene blue fluorescence ([4]; in FBS, from extinction coefficient and quantum yield): about 8 times
Emission Wavelength Maximum, PBS ([4]; in PBS): 806 nm
Fluorescence Quantum Yield, PBS ([4]; in PBS): 1%
Peak Fluorescence in PBS ([4]; in PBS): 806 nm
Quantum Yield in PBS ([4]; in PBS): 1%
dye stacking to the liver (common bile duct [6]; rats, portal vein injection): significant dye stacking to the liver
identification of perforating arteries and veins [8]: can be identified
distribution in myocardium after arteriography [9]: evenly distributed over the entire myocardium
detection of diagonal branch D2 after releasing the clamp ([9]; 0.03 mg/kg intravenously): detected clearly
structure shown in two-channel NIR imaging ([9]; ICG 800 nm, MB 700 nm): highlights blood vessels

CN1C(=CC=C2CCCC(C=CC3=[N+](C)c4ccccc4C3(C)C)=C2Cl)C(C)(C)c2ccccc21.[O-][Cl+3]([O-])([O-])[O-] [IR-786]
clearance after intravenous injection [3]: rapidly extracted into many tissues in the body, especially the liver, and is inefficiently transported into bile
Peak Absorbance in PBS (Absorbance spectrometry; in PBS): 768 nm
Peak Fluorescence in PBS ([4]; in PBS): 803 nm
Quantum Yield in PBS ([4]; in PBS): 3.3%
dye stacking to the liver (common bile duct [6]; rats, portal vein injection): significant dye stacking to the liver

CCN(CC)c1ccc2nc3ccc(=[N+](CC)CC)cc-3oc2c1.[O-][Cl+3]([O-])([O-])[O-] [oxazine725]
quantum yield of calibration standard ([1]; in ethylene glycol): 19%
